# Reference: patent publication US20260286396A1, “AXL KNOCK OUT CAR T CELLS AND METHODS FOR USE THEREOF” (priority 2023, published 2026)
# Tested on: CART19 cells
# Assay: RNA sequencing of CART19 cells with Ingenuity pathway analysis (pathways, upstream regulators)
# Assay type: cell-based, human
# Settings: for Expr Log Ratio / Activation Z-Score / Predicted Activation State: 30 nM, 24 hours vs vehicle
# Method: CART19 cells were isolated using CD4 and CD8 microbeads to […] the JeKo-1 target cells; this isolation step was performed twice to eliminate the possible contamination of JeKo-1 cells. RNA was isolated from the CART19 cells using QIAGEN RNEASY® Plus Mini Kit. RNA was further treated with DNase I (QIAGEN) and purified using RNA Clean & Concentrator (Zymo Research). […] The fastq files were viewed in FastQC to check for quality (Cox et al., Mol Ther., 29 (4): 1529-1540, 2020). After verifying the lack of adapter sequences with FastQC, Cutadapt (Martin, EMBnet, 17:10-12, 2011) was used to filter for reads greater than 32 base pairs. Output files were re-checked for quality using FastQC. The latest human reference genome (GRCh38.p13) was downloaded from NCBI. Genome index files were generated using STAR (Cox et al. 2020, supra, and Dobin et al., Bioinformatics, 29:15-21, 2012). Paired end reads from fastq files were mapped to the genome for each condition. HTSeq was used to generate expression counts for each gene (Cox et al. 2020, supra; and Putri et al., Bioinformatics, 38:2943-2945, 2022). […] The disruption efficiency of the CRISPR/Cas9 GM-CSF knockout was determined using targeted sequencing through PCR and TIDE analysis (software available at tide.nki.nl) as described elsewhere (Sakemura et al. 2021, supra).
# RNA sequencing of CART19 cells was then performed. […] Data were analyzed with the use of QIAGEN Ingenuity Pathway Analysis (IPA) (digitalinsights.qiagen.com/IPA; Krämer et al., Bioinformatics 30 (4): 523-530, 2014).
# [1] = CART19+JeKo-1, 30 nM TP-0903 vs vehicle, 24 h
# [2] = CART19+JeKo-1, 30 nM TP-0903 vs vehicle, 24 h, flag bias
# [3] = Upstream Regulator BRD4 (second entry, r376)
smiles,measurement,setting,value
"CN1CCN(Cc2ccc(Nc3ncc(Cl)c(Nc4ccccc4S(=O)(=O)N(C)C)n3)cc2)CC1 [TP-0903, Dubermatinib]",upstream regulator SREBF1 Predicted Activation State,[1],inhibited
same,upstream regulator SREBF2 Activation Z-Score,[1],−1.433
same,upstream regulator SUCNR1 Activation Z-Score,[1],0
same,upstream regulator TEAD3 Activation Z-Score,[1],−1.633
same,upstream regulator TERT Activation Z-Score,[1],−1.412
same,upstream regulator TGFB1 Activation Z-Score,[1],−1.429
same,upstream regulator TGFB3 Activation Z-Score,[1],−0.894
same,upstream regulator TGFBR2 Activation Z-Score,[1],0.658
same,upstream regulator TLR2 Activation Z-Score,[1],−1.417
same,upstream regulator TLR7 Predicted Activation State,[1],inhibited
same,upstream regulator TNFRSF4 Activation Z-Score,[1],−1.098
same,upstream regulator TNFSF15 Activation Z-Score,[1],−0.425
same,upstream regulator TRAF3 Activation Z-Score,[1],−0.656
same,upstream regulator TREM1 Activation Z-Score,[1],−0.093
same,upstream regulator VEGF Activation Z-Score,[1],−0.81
same,upstream regulator WNT1 Activation Z-Score,[1],−1.387
same,upstream regulator YAP1 Activation Z-Score,[1],0.591
same,upstream regulator COMMD1 Activation Z-Score,[2],2
same,upstream regulator CSF Activation Z-Score,[2],−0.816
same,upstream regulator EGLN Activation Z-Score,[2],1.793
same,upstream regulator IKZF2 Activation Z-Score,[2],0.447
same,upstream regulator MIR-17-5P (AND OTHER MIRNAS W/SEED AAAGUGC) Activation Z-Score,[2],1.449
same,upstream regulator MIR-450A-5P (AND OTHER MIRNAS W/SEED UUUGCGA) Activation Z-Score,[2],2.236
same,upstream regulator MLXIPL Activation Z-Score,[2],−3.101
same,upstream regulator PAF1 Activation Z-Score,[2],0.762
same,upstream regulator TLR7 Activation Z-Score,[2],−2
same,upstream regulator TPH1 Activation Z-Score,[2],−1.89
same,Expr Log Ratio,Upstream Regulator ADAM8,−0.008
same,Activation Z-Score,Upstream Regulator ADRB,1.616
same,Activation Z-Score,Upstream Regulator AHR,−0.104
same,Expr Log Ratio,Upstream Regulator AHR,−0.083
same,Activation Z-Score,Upstream Regulator AKT,−2.79
same,Predicted Activation State,Upstream Regulator AKT,inhibited
same,Activation Z-Score,Upstream Regulator AREG,−2.287
same,Expr Log Ratio,Upstream Regulator AREG,1.429
same,Predicted Activation State,Upstream Regulator AREG,inhibited
same,Activation Z-Score,Upstream Regulator BHLHE40,−0.158
same,Expr Log Ratio,Upstream Regulator BHLHE40,0.043
same,Expr Log Ratio,Upstream Regulator BIRC5,−0.028
same,Activation Z-Score,Upstream Regulator BNIP3L,−1.463
same,Expr Log Ratio,Upstream Regulator BNIP3L,−0.47
same,Activation Z-Score,"Upstream Regulator BRD4 (first entry, r300, no Expr Log Ratio)",−0.213
same,Activation Z-Score,[3],−2.16
same,Expr Log Ratio,[3],−0.067
same,Predicted Activation State,[3],inhibited
same,Activation Z-Score,Upstream Regulator CASP8,1.72
same,Expr Log Ratio,Upstream Regulator CASP8,0.141
same,Activation Z-Score,Upstream Regulator CD3,−1.272
same,Activation Z-Score,Upstream Regulator CD40,−0.284
same,Expr Log Ratio,Upstream Regulator CD40,−0.283
same,Activation Z-Score,Upstream Regulator CDKN2A,0.421
same,Expr Log Ratio,Upstream Regulator CDKN2A,−0.27
same,Activation Z-Score,Upstream Regulator CREB1,−0.611
same,Expr Log Ratio,Upstream Regulator CREB1,−0.112
same,Activation Z-Score,Upstream Regulator CREM,0.286
same,Expr Log Ratio,Upstream Regulator CREM,0.351
same,Activation Z-Score,Upstream Regulator CSF1,−1.71
same,Expr Log Ratio,Upstream Regulator CSF1,−0.377
same,Activation Z-Score,Upstream Regulator CSF2,−2.255
same,Expr Log Ratio,Upstream Regulator CSF2,−0.066
same,Predicted Activation State,Upstream Regulator CSF2,inhibited
same,Activation Z-Score,Upstream Regulator CTNNB1,−2.082
same,Expr Log Ratio,Upstream Regulator CTNNB1,−0.154
same,Predicted Activation State,Upstream Regulator CTNNB1,inhibited
same,Activation Z-Score,Upstream Regulator DDIT4,−0.816
same,Expr Log Ratio,Upstream Regulator DDIT4,−0.248
same,Activation Z-Score,Upstream Regulator EGF,−1.744
same,Expr Log Ratio,Upstream Regulator EIF2S1,0.079
same,Activation Z-Score,Upstream Regulator ELAVL1,−1.431
same,Expr Log Ratio,Upstream Regulator ELAVL1,0.045
same,Activation Z-Score,Upstream Regulator EPAS1,−0.365
same,Expr Log Ratio,Upstream Regulator EPAS1,−0.784
same,Activation Z-Score,Upstream Regulator ETS1,−1.485
same,Expr Log Ratio,Upstream Regulator ETS1,0.129
same,Activation Z-Score,Upstream Regulator FOXP3,1.094
same,Expr Log Ratio,Upstream Regulator FOXP3,−0.21
same,Expr Log Ratio,Upstream Regulator GNAQ,−0.381
same,Activation Z-Score,Upstream Regulator GNAS,0.898
same,Expr Log Ratio,Upstream Regulator GNAS,0.075
same,Activation Z-Score,Upstream Regulator HDL-CHOLESTEROL,1.89
same,Activation Z-Score,Upstream Regulator HIF1A,−1.763
same,Expr Log Ratio,Upstream Regulator HIF1A,0.181
same,Activation Z-Score,Upstream Regulator HRAS,−1.187
same,Activation Z-Score,Upstream Regulator ID2,1.609
same,Expr Log Ratio,Upstream Regulator ID2,0.114
same,Activation Z-Score,Upstream Regulator IFN BETA,−0.892
same,Activation Z-Score,Upstream Regulator IFNG,−2.044
same,Expr Log Ratio,Upstream Regulator IFNG,−0.559
same,Predicted Activation State,Upstream Regulator IFNG,inhibited
same,Activation Z-Score,Upstream Regulator IGG,1.765
same,Activation Z-Score,Upstream Regulator IL1B,−1.164
same,Expr Log Ratio,Upstream Regulator IL1B,0.19
same,Activation Z-Score,Upstream Regulator IL2,−1.669
same,Expr Log Ratio,Upstream Regulator IL2,−0.397
same,Activation Z-Score,Upstream Regulator IL3,−1.125
same,Expr Log Ratio,Upstream Regulator IL3,−0.843
same,Activation Z-Score,Upstream Regulator IL4,−3.271
same,Expr Log Ratio,Upstream Regulator IL4,−1.068
same,Predicted Activation State,Upstream Regulator IL4,inhibited
same,Activation Z-Score,Upstream Regulator IL5,−1.165
same,Expr Log Ratio,Upstream Regulator IL5,−1.157
same,Activation Z-Score,Upstream Regulator IL6,−2.441
same,Expr Log Ratio,Upstream Regulator IL6,−1.319
same,Predicted Activation State,Upstream Regulator IL6,inhibited
same,Activation Z-Score,Upstream Regulator IL13,−1.489
same,Expr Log Ratio,Upstream Regulator IL13,0
same,Activation Z-Score,Upstream Regulator IL17A,0.354
same,Expr Log Ratio,Upstream Regulator IL17A,−0.356
same,Activation Z-Score,Upstream Regulator IL33,−1.508
same,Activation Z-Score,Upstream Regulator IMMUNOGLOBULIN,0.465
same,Expr Log Ratio,Upstream Regulator ITGA11,−0.167
same,Activation Z-Score,"Upstream Regulator ITGA11, flag bias",−1
same,Activation Z-Score,Upstream Regulator KLF11,−2.333
